The text below walks through data of patent US20100234226A1, “HERBICIDE COMBINATION COMPRISING DIMETHOXYTRIAZINYL-SUBSTITUTED DIFLUOROMETHANESULFONYLANILIDES” (BAYER CROPSCIENCE AG, priority 2008, published 2010).

Like-named read-outs stand apart in the source and are kept apart here.

What all share (format): in vivo
One test relates to Setaria viridis (SETVI). The test is described as follows: Post-emergence action against weeds, greenhouse pot test, Setaria viridis. The following applies: 504 h, 21 DAT, read-out: % activity found. As to the method:
(§1) Seeds or rhizome pieces of mono- and dicotyledonous harmful and useful plants were placed in peat pots (diameter 4 cm) filled with sandy loam and then covered with soil. The pots were kept in a greenhouse under optimum conditions. In addition, harmful plants encountered in paddy rice cultivation were cultivated in pots with a water level 2 cm above the soil surface.
(§2) About three weeks after the start of the cultivation, the test plants were treated at the 2- to 3-leaf stage. The herbicides, formulated as powder or liquid concentrates, were, either alone or in the combinations according to the invention, sprayed in various dosages on to the green parts of the plants using an application rate of 600 l of water/ha (converted). For further cultivation of the plants, the pots were then again kept under optimum conditions in a greenhouse.
(§3) The visual scoring of the herbicidal effects was carried out in intervals up to 21 days after the treatment. Scoring was carried out in percent in comparison to the untreated control plants. 0%=no herbicidal activity, 100%=complete herbicidal activity=complete kill.
(§4) The percentages from the treatments with the herbicides alone (=individual application) and with the combinations according to the invention (=mixtures) were employed to calculate interactions using the method of Colby. When the observed efficacies of the mixtures exceed the formal sum of the values of the tests with individual applications, they also exceed the expected value according to Colby, which is calculated using the formula below (cf. S. R. Colby; in Weeds 15 (1967) pp. 20 to 22):
(§5) Here: • A, B=activity of components A and B in percent at a dosage of a and b g of ai/ha (=gramm of active substance per hectare), respectively. • E=expected value in % at a dosage of a+b g of ai/ha. […]

The next test deals with Viola tricolor (VIOTR). The test is described as follows: Post-emergence action against weeds, greenhouse pot test, Viola tricolor. The conditions noted are these: Viola tricolor, post-emergence, read-out: % activity found; for inhibition at 12 g/ha: 12 g of ai/ha. The procedure:
as §1, §2, §3, §4
(§6) Here: • A, B=activity of components A and B in percent at a dosage of a and b g of ai/ha (=gramm of active substance per hectare), respectively. • E=expected value in % at a dosage of a+b g of ai/ha.
(§7) The combinations according to the invention of herbicides from group (A) with herbicides from group (B) were tested on a broad spectrum of important harmful plants (weed grasses, broad-leaved weeds/Cyperaceae) and useful plants: Triticum aestivum (TRZAS), Stellaria media (STEME), Lolium multiflorum (LOLMU), Veronica persica (VERPE), Alopecurus myosuroides (ALOMY), Matricaria inodora (MATIN), Brassica napus (BRSNW), Viola tricolor (VIOTR), Avena fatua (AVEFA), Amaranthus retroflexus (AMARE), Zea mays (ZEAMX), Pharbitis purpurea (PHBPU), Setaria viridis (SETVI), Fallopia (ex Polygonum) convolvulus (POLCO), Echinochloa crus-gaffi (ECHCG), Abuthilon theophrasti (ABUTH), Cyperus esculentus (CYPES), Oryza sativa (ORYSA).
(§8) Of particular interest are the results shown in the tables (Tab.) below, where the following key is used: • (1) EPPO code (former Bayer code) for the treated plant (see above) • (2) Time of scoring: DAT (days after treatment) • (3) Component A tested (identifying number) • (4) Component B tested (identifying number) • (5) Dosage component A [g of ai/ha] • (6) Dosage component B [g of ai/ha] • (7) % activity found • (8) E value (calculated according to Colby; see above) • (9) Comments: “SYNERGY”=synergistic interaction (E value <% activity found); “SAFENING”=safener action on useful plant (E value >% activity found)

The next test deals with Veronica persica (VERPE). The test is described as follows: Post-emergence action against weeds, greenhouse pot test, Veronica persica. The conditions noted are these: read-out: % activity found; for inhibition at 12 g/ha: 12 g of ai/ha; for inhibition at 36 g/ha: 36 g of ai/ha. The procedure: as §1, §2, §3, §4, §6, §7, §8
In a further test the test system is Oryza sativa (ORYSA). The test is described as follows: Post-emergence action against weeds, greenhouse pot test, Oryza sativa. The conditions noted are these: 240 h, 10 DAT, read-out: % activity found. As to the method:
as §1
(§9) About three weeks after the start of the cultivation, the test plants were treated at the 2- to 3-leaf stage. The herbicides, formulated as powder or liquid concentrates, were, either alone or in the combinations according to the invention, sprayed in various dosages on to the green parts of the plants using an application rate of 600 l of water/ha (converted). For further cultivation of the plants, the pots were then again kept under optimum conditions in a greenhouse. […]
(§10) The percentages from the treatments with the herbicides alone (=individual application) and with the combinations according to the invention (=mixtures) were employed to calculate interactions using the method of Colby. When the observed efficacies of the mixtures exceed the formal sum of the values of the tests with individual applications, they also exceed the expected value according to Colby, which is calculated using the formula below (cf. S. R. Colby; in Weeds 15 (1967) pp. 20 to 22): […]

Test [1] concerns Cyperus esculentus (CYPES). The test is described as follows: Post-emergence action against weeds, greenhouse pot test, Cyperus esculentus. The following applies: Cyperus esculentus, post-emergence, read-out: % activity found; for inhibition at 12 g/ha: 12 g of ai/ha. As to the method:
as §1, §2, §3, §4, §6

A further test concerns Avena fatua (AVEFA). The test is described as follows: Post-emergence action against weeds, greenhouse pot test, Avena fatua. The conditions noted are these: read-out: % activity found; for inhibition at 100 g/ha: 100 g of ai/ha. The procedure: as §1, §2, §3, §4, §5, §8
Test [2] deals with Pharbitis purpurea (PHBPU). The test is described as follows: Post-emergence action against weeds, greenhouse pot test, Pharbitis purpurea. The conditions noted are these: Ipomoea purpurea, read-out: % activity found; for inhibition at 12 g/ha: 12 g of ai/ha. The procedure: as §1, §2, §3, §4, §6, §7, §8
Test [3] relates to Triticum aestivum (TRZAS). The test is described as follows: Post-emergence action against weeds, greenhouse pot test, Triticum aestivum. The conditions noted are these: 504 h, 21 DAT, read-out: % activity found. The procedure:
as §1, §2, §3, §4, §5

The subject of test [4] is Fallopia (ex Polygonum) convolvulus (POLCO). The test is described as follows: Post-emergence action against weeds, greenhouse pot test, Fallopia convolvulus. The conditions noted are these: Fallopia convolvulus, post-emergence, 504 h, 21 DAT, read-out: % activity found. As to the method:
as §1, §2, §3, §4, §6, §7, §8

In test [5] the test system is Lolium multiflorum (LOLMU). The test is described as follows: Post-emergence action against weeds, greenhouse pot test, Lolium multiflorum. The conditions noted are these: 12 g of ai/ha, read-out: % activity found. The procedure: as §1, §2, §3, §4, §6, §7, §8
Test [6] concerns Matricaria inodora (MATIN). The test is described as follows: Post-emergence action against weeds, greenhouse pot test, Matricaria inodora. The following applies: Tripleurospermum inodorum, post-emergence, read-out: % activity found; for inhibition at 36 g/ha: 36 g of ai/ha. The procedure: as §1, §2, §3, §4, §6
Test [7] has as its system Amaranthus retroflexus (AMARE). The test is described as follows: Post-emergence action against weeds, greenhouse pot test, Amaranthus retroflexus. The conditions noted are these: read-out: % activity found; for inhibition at 12 g/ha: 12 g of ai/ha; for inhibition at 36 g/ha: 36 g of ai/ha. The procedure: as §1, §2, §3, §4, §6, §7, §8
Another test relates to Zea mays (ZEAMX). The test is described as follows: Post-emergence action against weeds, greenhouse pot test, Zea mays. The following applies: Zea mays, post-emergence, read-out: % activity found; for inhibition at 12 g/ha: 12 g of ai/ha; for inhibition at 36 g/ha: 36 g of ai/ha. The procedure:
as §1, §2, §3, §4, §6, §7, §8

Test [8] concerns Alopecurus myosuroides (ALOMY). The test is described as follows: Post-emergence action against weeds, greenhouse pot test, Alopecurus myosuroides. The conditions noted are these: 504 h, 21 DAT, 100 g of ai/ha, read-out: % activity found. As to the method:
as §1, §9, §10

Turning to `Cc1ccccc1CO[C@@H]1C[C@@]2(C(C)C)CC[C@]1(C)O2` (racemic) [B-24, exo-(±)-1-methyl-4-(1-methylethyl)-2-[(2-methylphenyl)methoxy]-7-oxabicyclo[2.2.1]heptane], the inhibition at 12 g/ha with Setaria viridis (SETVI) (12 g of ai/ha) was found to be 30%; in the test on Viola tricolor (VIOTR) (240 h, 10 DAT), 0%; in the test on Viola tricolor (VIOTR) (504 h, 21 DAT), 0%; in the test with Veronica persica (VERPE) (240 h, 10 DAT), 0%; with Veronica persica (VERPE) (504 h, 21 DAT), 0%; with Oryza sativa (ORYSA) (12 g of ai/ha) it was 0%. Further, the inhibition at 12 g/ha in [1] (240 h, 10 DAT) is 0%; in [1] (504 h, 21 DAT) it was 0%; with Avena fatua (AVEFA) (504 h, 21 DAT, 12 g of ai/ha), 0%; in [2] (240 h, 10 DAT) it was 0%; in [2] (504 h, 21 DAT) it was 0%; in [3] (12 g of ai/ha) it was 0%. Moreover, the inhibition at 12 g/ha in [4] (12 g of ai/ha) came to 0%; in [5] (240 h, 10 DAT) it was 40%; in test [5] (504 h, 21 DAT), 20%; in [6] (504 h, 21 DAT, 12 g of ai/ha), 0%; in test [7] (240 h, 10 DAT) it was 0%; in test [7] (504 h, 21 DAT) it was 0%. Besides, the inhibition at 12 g/ha in the test on Zea mays (ZEAMX) (240 h, 10 DAT) came out at 0%; in the test with Zea mays (ZEAMX) (504 h, 21 DAT), 0%. Besides, the inhibition at 36 g/ha in the test with Setaria viridis (SETVI) (36 g of ai/ha) turned out to be 50%; with Viola tricolor (VIOTR) (240 h, 10 DAT, 36 g of ai/ha) it was 0%; in the test on Veronica persica (VERPE) (240 h, 10 DAT), 0%; with Veronica persica (VERPE) (504 h, 21 DAT) it was 0%; with Oryza sativa (ORYSA) (36 g of ai/ha) it was 20%; in test [1] (504 h, 21 DAT, 36 g of ai/ha), 20%. For the same compound, the inhibition at 36 g/ha came to 0% in [2] (504 h, 21 DAT, 36 g of ai/ha); 10% in test [3] (36 g of ai/ha); 0% in test [4] (36 g of ai/ha); 0% in [6] (240 h, 10 DAT); 0% in test [6] (504 h, 21 DAT); 0% in test [7] (240 h, 10 DAT). Also, the inhibition at 36 g/ha in [7] (504 h, 21 DAT) stood at 0%; in the test on Zea mays (ZEAMX) (240 h, 10 DAT), 20%; in the test with Zea mays (ZEAMX) (504 h, 21 DAT), 0%.

Consider `CC1(C)CON(Cc2ccccc2Cl)C1=O` [B-26, 2-[(2-chlorophenyl)methyl]-4,4-dimethyl-3-isoxazolidinone], for which the inhibition at 300 g/ha in the test on Viola tricolor (VIOTR) (240 h, 10 DAT, 300 g of ai/ha) is 50%; in test [1] (504 h, 21 DAT, 300 g of ai/ha) it was 0%; in the test on Avena fatua (AVEFA) (504 h, 21 DAT, 300 g of ai/ha), 30%; in test [2] (504 h, 21 DAT, 300 g of ai/ha), 0%; in the test on Zea mays (ZEAMX) (504 h, 21 DAT, 300 g of ai/ha) it was 30%. For the same compound, the inhibition at 100 g/ha was 0% in [1] (504 h, 21 DAT, 100 g of ai/ha); 10% in the test on Avena fatua (AVEFA) (240 h, 10 DAT); 10% with Avena fatua (AVEFA) (504 h, 21 DAT); 0% in test [2] (504 h, 21 DAT, 100 g of ai/ha); 0% in test [8]; 40% in test [6] (10/21 DAT, 100 g of ai/ha). In the test with Zea mays (ZEAMX) (504 h, 21 DAT, 100 g of ai/ha), the inhibition at 100 g/ha came to 0%.
